For one data set, the system named is MOLP-8. The data set can be described thus: Induction apoptosis in human MOLP8 cells assessed as cell killing measured after 2 hrs by Caspase-Glo 3/7 Assay. Format: functional, cell-based. The settings on record: MOLP-8, 2 h.
The target in a further data set is T1, Cytochrome P450 1A2 (Homo sapiens, UniProt P05177).
T1 sequence (P05177 whole entry): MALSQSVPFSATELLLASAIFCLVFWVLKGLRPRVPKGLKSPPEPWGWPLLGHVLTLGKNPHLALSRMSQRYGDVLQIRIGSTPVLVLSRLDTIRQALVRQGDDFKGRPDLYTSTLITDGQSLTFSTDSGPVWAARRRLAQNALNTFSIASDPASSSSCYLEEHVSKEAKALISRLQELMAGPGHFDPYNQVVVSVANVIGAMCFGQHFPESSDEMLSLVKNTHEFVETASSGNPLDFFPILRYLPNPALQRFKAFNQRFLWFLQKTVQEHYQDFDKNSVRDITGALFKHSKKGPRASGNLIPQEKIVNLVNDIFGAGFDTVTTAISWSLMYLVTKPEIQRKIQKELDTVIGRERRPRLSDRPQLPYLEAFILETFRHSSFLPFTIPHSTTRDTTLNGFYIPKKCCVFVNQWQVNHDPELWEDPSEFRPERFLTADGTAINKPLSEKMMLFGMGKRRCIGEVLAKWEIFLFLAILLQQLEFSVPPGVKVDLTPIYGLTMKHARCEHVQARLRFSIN
The data set can be described thus: Inhibition of human CYP1A2 assessed as fluorescent metabolites by CYP450 inhibition assay. Format: ADME.

The target in a further data set is T2, Cytochrome P450 2C8 (Homo sapiens, UniProt P10632).
T2 sequence (P10632 whole entry): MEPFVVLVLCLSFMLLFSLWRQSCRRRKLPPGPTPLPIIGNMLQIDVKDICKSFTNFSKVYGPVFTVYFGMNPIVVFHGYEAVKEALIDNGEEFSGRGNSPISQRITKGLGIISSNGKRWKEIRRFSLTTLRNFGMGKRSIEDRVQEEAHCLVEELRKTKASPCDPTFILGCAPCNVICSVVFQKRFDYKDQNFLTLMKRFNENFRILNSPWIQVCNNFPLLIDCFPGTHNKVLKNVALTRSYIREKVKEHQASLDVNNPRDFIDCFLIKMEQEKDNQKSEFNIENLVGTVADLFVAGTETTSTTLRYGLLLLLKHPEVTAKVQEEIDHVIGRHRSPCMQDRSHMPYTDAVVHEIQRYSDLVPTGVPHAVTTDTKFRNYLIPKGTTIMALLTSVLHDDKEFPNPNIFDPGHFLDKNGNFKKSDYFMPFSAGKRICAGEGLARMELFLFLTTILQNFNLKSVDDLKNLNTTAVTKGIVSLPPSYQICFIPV
Briefly: Inhibition of human CYP2C8 assessed as fluorescent metabolites by CYP450 inhibition assay. Format: ADME.

A short description of data set [1]: Lipophilicity, CHI logD of compound at pH 7.4 by UPLC-TOF analysis. The data set is classed as physicochemical. The settings on record: buffer.
A short description of data set [2]: Intrinsic clearance in mouse liver microsomes measured upto 60 mins by LC-MS/MS analysis. Format: ADME, Microsome. The settings on record: read-out: CLH. (Microsomes from liver hold many membrane-bound enzymes, among them those of drug oxidation.)
The nature of data set [3]: Fraction unbound in human plasma at 5 uM incubated for 4.5 hrs by rapid equilibrium dialysis. Format: ADME, cell-free. For orientation: In equilibrium dialysis only unbound substance equilibrates across the membrane.
The nature of data set [4]: Fraction unbound in mouse plasma at 5 uM incubated for 4.5 hrs by rapid equilibrium dialysis. Format: ADME, cell-free.
For the next data set, the target named is Cytochrome P450 2D6 (Homo sapiens, UniProt P10635). Briefly: Inhibition of human CYP2D6 assessed as fluorescent metabolites by CYP450 inhibition assay. The data set is classed as ADME.
Data set [5] can be described thus: Thermodynamic (equilibrium) solubility of the compound measured after 3 days agitation in pH 2 buffer by LC-MS/MS analysis. The data set is classed as physicochemical. Particulars: time 3 day, read-out: Therm_solubility; call rule not given here.
Data set [6] in a line: Cardiotoxicity risk in human iPSC-CM assessed as calcium transients at 3 uM by CTCM assay. The data set is classed as toxicity, cell-based.
A short description of data set [7]: Inhibition of terbium-labelled Mcl-1 (unknown origin)/Bim BH3 peptide (H3N-(C/Cy5Mal)-WIAQELRRIGDEFN-OH) (unknown origin) interaction assessed as displacement of Cy5-labeled Bim BH3 peptide by TR-HTRF assay. (In general: In TR-FRET formats the signal depends on donor and acceptor labels being close together.)
Data set [8] is described as follows: Cardiotoxicity risk in human iPSC-CM assessed as calcium transients at 1 uM by CTCM assay. Format: toxicity, cell-based.
The nature of data set [9]: Thermodynamic (equilibrium) solubility of the compound measured after 3 days agitation in pH 7 buffer by LC-MS/MS analysis. Particulars: time 3 day, read-out: Therm_solubility. Format: physicochemical.
Data set [10] can be described thus: Intrinsic clearance in human liver microsomes measured upto 60 mins by LC-MS/MS analysis. The data set is classed as ADME, Microsome. The settings on record: read-out: CLH.
The target of another data set is Cytochrome P450 2C9 (Homo sapiens, UniProt P11712). The data set can be described thus: Inhibition of human CYP2C9 assessed as fluorescent metabolites by CYP450 inhibition assay. Format: ADME.
Another data set concerns the target Cytochrome P450 2C19 (Homo sapiens, UniProt P33261). The data set can be described thus: Inhibition of human CYP2C19 assessed as fluorescent metabolites by CYP450 inhibition assay. The data set is classed as ADME.
Data set [11] is described as follows: Lipophilicity, CHI logD of compound at pH 2.6 by UPLC-TOF analysis. Particulars: buffer. The data set is classed as physicochemical.
The nature of data set [12]: Lipophilicity, CHI logP of compound at pH 7.4 by UPLC-TOF analysis. The data set is classed as physicochemical. The settings on record: buffer, read-out: logP.
The nature of data set [13]: Cardiotoxicity risk in human iPSC-CM assessed as calcium transients at 10 uM by CTCM assay. The data set is classed as toxicity, cell-based.

pIC50, pKi: −log10 of the molar value. ≈ marks a conversion by molar mass, not a printed value.

Chain of Cytochrome P450 2C9 (P11712 whole entry): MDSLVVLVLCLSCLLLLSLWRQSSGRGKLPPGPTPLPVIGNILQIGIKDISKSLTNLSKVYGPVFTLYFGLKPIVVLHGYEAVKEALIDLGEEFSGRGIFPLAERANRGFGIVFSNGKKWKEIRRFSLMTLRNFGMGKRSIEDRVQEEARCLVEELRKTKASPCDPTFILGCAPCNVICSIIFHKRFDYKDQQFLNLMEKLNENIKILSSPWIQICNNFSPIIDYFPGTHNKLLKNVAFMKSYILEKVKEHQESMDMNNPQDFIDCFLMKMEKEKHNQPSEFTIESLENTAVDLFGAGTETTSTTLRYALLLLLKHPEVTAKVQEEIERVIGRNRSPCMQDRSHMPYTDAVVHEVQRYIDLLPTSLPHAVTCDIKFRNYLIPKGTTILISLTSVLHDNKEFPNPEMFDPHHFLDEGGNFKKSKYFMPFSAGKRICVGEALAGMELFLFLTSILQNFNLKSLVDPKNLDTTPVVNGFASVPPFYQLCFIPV
Chain of Cytochrome P450 2C19 (P33261 whole entry): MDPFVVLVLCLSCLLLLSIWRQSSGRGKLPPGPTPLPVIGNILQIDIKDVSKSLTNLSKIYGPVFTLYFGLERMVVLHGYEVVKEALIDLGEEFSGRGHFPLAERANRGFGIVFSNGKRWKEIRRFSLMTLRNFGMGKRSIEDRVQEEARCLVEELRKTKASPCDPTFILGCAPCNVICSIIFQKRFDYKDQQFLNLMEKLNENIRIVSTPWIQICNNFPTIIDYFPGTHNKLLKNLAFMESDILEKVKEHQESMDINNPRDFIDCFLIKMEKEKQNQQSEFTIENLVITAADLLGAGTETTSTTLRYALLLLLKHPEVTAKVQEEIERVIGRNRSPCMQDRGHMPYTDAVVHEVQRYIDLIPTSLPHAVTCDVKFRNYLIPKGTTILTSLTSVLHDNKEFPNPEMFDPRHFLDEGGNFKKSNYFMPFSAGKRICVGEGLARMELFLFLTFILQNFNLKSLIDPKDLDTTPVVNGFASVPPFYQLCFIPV
Chain of Cytochrome P450 2D6 (P10635 whole entry): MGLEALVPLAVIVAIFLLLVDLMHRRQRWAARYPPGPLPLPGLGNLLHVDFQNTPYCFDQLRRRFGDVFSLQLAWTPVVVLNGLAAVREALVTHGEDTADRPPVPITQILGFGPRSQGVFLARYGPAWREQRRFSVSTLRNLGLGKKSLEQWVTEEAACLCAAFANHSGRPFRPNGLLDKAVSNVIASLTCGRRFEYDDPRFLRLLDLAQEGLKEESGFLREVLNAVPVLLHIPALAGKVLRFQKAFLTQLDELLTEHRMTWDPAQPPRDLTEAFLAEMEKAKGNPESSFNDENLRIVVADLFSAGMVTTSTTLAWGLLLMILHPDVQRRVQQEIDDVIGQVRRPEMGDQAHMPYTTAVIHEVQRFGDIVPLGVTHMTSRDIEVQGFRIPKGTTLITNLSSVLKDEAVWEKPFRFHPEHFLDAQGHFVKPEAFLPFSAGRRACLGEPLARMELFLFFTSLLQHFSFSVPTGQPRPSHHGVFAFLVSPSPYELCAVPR

For orientation: AC50 means the concentration giving half of the maximal activity seen. In general, pIC50 refers to the IC50 on a negative log10 scale, so that one unit is a factor of ten. In general, pKi refers to the negative decadic logarithm of the Ki, by convention in mol/L. In the case of `COCCOCCn1nc(C)c2c1CSCc1cc(n(C)n1)CSc1cc(c3ccccc3c1)OCCCn1c(C(=O)O)c(C)c3c-2c(Cl)ccc31`, the AC50 with MOLP-8 came to 12 nM. The “inhibition (INH)” value on Cytochrome P450 1A2, at Cytochrome P450 2D6, at Cytochrome P450 2C9 and at Cytochrome P450 2C19 was “Not Active” throughout. Moreover, the pIC50 at Cytochrome P450 2C8 is 6.30. The molecule also showed a chromatographic logD in [1] of 2.4. The microsomal CLint was greater than 347 µL/min/mg in data set [2] and 81 µL/min/mg in [10]. The Fu in data set [3] is 0.08%; in data set [4], 0.03%. Also, the solubility thermodynamic at 72 h in data set [5] is less than 0.5 µM; in data set [9] it was 508 µM (≈ 386 µg/mL). The Activity result in [6] and in [8] was “Non-Toxic” in each case. Further, the negative-log Ki (pKi) in data set [7] is 10.82.

As for `CO[C@@]1(CN2CCN3CCOC[C@@H]3C2)/C(F)=C/C[C@H](C)[C@@H](C)S(=O)(=O)NC(=O)c2ccc3c(c2)N(C[C@@H]2CCO[C@H]21)C[C@@]1(CCCc2cc(Cl)ccc21)CO3`, the AC50 with MOLP-8 was found to be 138 nM. Moreover, the “inhibition (INH)” value on Cytochrome P450 1A2, on Cytochrome P450 2D6, on Cytochrome P450 2C9 and at Cytochrome P450 2C19 was “Not Active” each time. The microsomal CLint is less than 7.7 µL/min/mg in [2] and 19 µL/min/mg in data set [10]. For the same molecule, the Fu is 0.16% in data set [3] and 0.13% in data set [4]. Further, the results for the chromatographic logD in data set [11] and in data set [12] were 2.5 and 2.9, respectively. In addition, the solubility thermodynamic at 72 h in data set [5] is 69 µM (≈ 55.3 µg/mL); in [9], 110 µM (≈ 88.2 µg/mL). The Activity result in [6] and in data set [8] was “Non-Toxic” in each case. Further, the negative logarithm of the Ki (pKi) in [7] was 10.85.

`COc1nn(C)cc1C(=O)N[S@@]1(=O)=NC(=O)c2ccc3c(c2)N(C[C@@H]2CC[C@H]2[C@@H](OC)/C=C/C[C@H](C)C1)C[C@@]1(CCCc2cc(Cl)ccc21)CO3`: the AC50 in the data set with MOLP-8 is 69.4 nM. Further, the “inhibition (INH)” value on Cytochrome P450 1A2, at Cytochrome P450 2D6, on Cytochrome P450 2C9 and on Cytochrome P450 2C19 was “Not Active” in each case. For the same molecule, the Activity entry is “Toxic” in data set [13], “Non-Toxic” in [6] and “Non-Toxic” in data set [8]. The pIC50 at Cytochrome P450 2C8 was 5.40. In data set [1], this molecule gave a chromatographic logD of 3.4. For the same molecule, the microsomal CLint in [2] and in [10] was less than 7.7 µL/min/mg each time. In addition, the Fu in data set [3] worked out at 0.06%; in [4] it was 0.02%. Further, the solubility thermodynamic at 72 h in data set [5] is less than 0.1 µM; in data set [9] it was 118 µM (≈ 86.9 µg/mL). Moreover, the pKi in data set [7] is 10.10.

On to `CO[C@]1(CN2CCN3CCOC[C@@H]3C2)/C(F)=C/C[C@H](C)[C@@H](C)S(=O)(=O)NC(=O)c2ccc3c(c2)N(C[C@@H]2CCO[C@H]21)C[C@@]1(CCCc2cc(Cl)ccc21)CO3`, for which, in the data set on MOLP-8, the AC50 stood at 163 nM. Further, the Activity result was “Toxic” in [13], “Non-Toxic” in data set [6] and “Non-Toxic” in data set [8]. In addition, the microsomal CLint was 21 µL/min/mg in data set [2] and 11 µL/min/mg in data set [10]. Also, the chromatographic logD in data set [11] is 2.8; in data set [12] it was 3.5. Further, the solubility thermodynamic at 72 h was 44 µM (≈ 35.3 µg/mL) in [5] and less than 0.1 µM in data set [9]. Besides, the pKi in data set [7] was 10.06.

Turning to `COc1nn(C)cc1C(=O)N[S@@]1(=O)=NC(=O)c2ccc3c(c2)N(C[C@@H]2CCO[C@H]2[C@](CN2CCN4CCOC[C@@H]4C2)(OC)/C(F)=C/C[C@H](C)C1)C[C@@]1(CCCc2cc(Cl)ccc21)CO3`, the AC50 in the data set on MOLP-8 was found to be 28.6 nM. Moreover, the “inhibition (INH)” value at Cytochrome P450 1A2, on Cytochrome P450 2D6, at Cytochrome P450 2C9 and at Cytochrome P450 2C19 was “Not Active” in each case. Moreover, the Activity result in [13], in [6] and in [8] was “Non-Toxic” each time. In addition, the pIC50 on Cytochrome P450 2C8 was 5.20. Further, the chromatographic logD in data set [1] was 3.1. In addition, the microsomal CLint in [2] and in [10] was less than 7.7 µL/min/mg in each case. The values for the Fu in data set [3] and in data set [4] were 0.12% and 0.08%, respectively. The solubility thermodynamic at 72 h in data set [5] was 48 µM (≈ 44.4 µg/mL); in [9], less than 0.1 µM. In addition, in data set [7], the pKi was 10.85.

Turning to `CO[C@@]1(CN2CCN3CCOC[C@@H]3C2)/C(F)=C/C[C@H](C)[C@H](C)S(=O)(=O)NC(=O)c2ccc3c(c2)N(C[C@@H]2CCO[C@H]21)C[C@@]1(CCCc2cc(Cl)ccc21)CO3`, the AC50 in the data set with MOLP-8 is 992 nM. In addition, the Activity result in data set [13] is reported as “Toxic”; in data set [6] it was “Non-Toxic”; in data set [8] it was “Non-Toxic”. Moreover, the microsomal CLint was 22 µL/min/mg in data set [2] and less than 7.7 µL/min/mg in [10]. The chromatographic logD stood at 3.4 in [11] and 3.3 in [12]. The solubility thermodynamic at 72 h in data set [5] is 516 µM (≈ 414 µg/mL); in data set [9], less than 0.1 µM. For the same molecule, the pKi in data set [7] was 9.89.

With `COCCN(CCOC)C[C@]1(OC)/C(F)=C/C[C@H](C)[C@@H](C)S(=O)(=O)NC(=O)c2ccc3c(c2)N(C[C@@H]2CCO[C@H]21)C[C@@]1(CCCc2cc(Cl)ccc21)CO3`, the AC50 in the data set with MOLP-8 is 412 nM. Also, the figures for the microsomal CLint in [2] and in data set [10] were 28 µL/min/mg and less than 7.7 µL/min/mg, respectively. In addition, the chromatographic logD was found to be 3 in data set [11] and 3.9 in [12]. Besides, the solubility thermodynamic at 72 h in data set [5] is 518 µM (≈ 410 µg/mL); in data set [9], 1.1 µM (≈ 0.872 µg/mL). Besides, the pKi in [7] is 10.02.

With `C[C@@H]1[C@@H](C)C/C=C(\F)[C@@](O)(CN2CCN3CCCC[C@@H]3C2)[C@@H]2OCC[C@H]2CN2C[C@@]3(CCCc4cc(Cl)ccc43)COc3ccc(cc32)C(=O)NS1(=O)=O`, the AC50 in the data set on MOLP-8 was determined as 2660 nM. The microsomal CLint in [2] and in [10] was less than 7.7 µL/min/mg each time. For the same molecule, the chromatographic logD came out at 2.5 in [11] and 2.9 in [12]. Besides, the solubility thermodynamic at 72 h in [5] is 95 µM (≈ 74.6 µg/mL); in [9] it was less than 0.1 µM. Besides, the negative-log Ki (pKi) in data set [7] is 9.66.

These data come from ChEMBL document CHEMBL5380869, “Discovery of an Oral, Beyond-Rule-of-Five Mcl-1 Protein-Protein Interaction Modulator with the Potential of Treating Hematological Malignancies” (J Med Chem, 2023).
